# In patent US9663479B2, “γ-aminobutyric acid (GABA) analogues for the treatment of pain and other disorders” (Novassay S.A., priority 2013, dated 2017):
# Assays:
# [1] = test system: human recombinant CACNA2D1 (Voltage-Gated Calcium Channel subunit α2δ-1 fragment); assay: Biacore surface plasmon resonance kinetic binding analysis on immobilised CACNA2D1; conditions: SPR, CM5 chip, BSA reference subtracted
# Description: Method for determining kinetic binding parameters (association and dissociation rates) and affinities (KD) of GABA analogues to α2δ-1subunits.
# It is well known in the art that binding affinity can be expressed as KD or equilibrium dissociation constant, whereby increasing binding affinity correlates with decreasing KD, which can be calculated from kinetic binding constants. Kinetic binding analysis of GABA analogues to α2δ-1subunits can be determined by surface plasmon resonance technology applied in Biacore™ SPR instruments (Biacore, GE Healthcare, Uppsala). Kinetic association rates (ka; k-on) and dissociation rates (kd; k-off) are obtained. Equilibrium dissociation constant (KD; affinity) values are calculated as k-off/k-on.
# This example discloses that the GABA analogues ((1R,5S,6S)-6-((1H-tetrazol-5-yl)methyl)-3-ethylbicyclo[3.2.0]hept-3-en-6-yl)methanamine (“Test Compound”: prepared as described in Example 2) and (1R,5S,6S)-6-(aminomethyl)-3-ethylbicyclo[3.2.0]hept-3-en-6-yl]acetic acid (“Reference Compound”: prepared as described in WO 2010/079668 and US 2012/0071685A1) are capable of binding to a recombinant fragment of human Voltage-Gated Calcium Channel subunit (α2δ-1, CACNA2D1). […]
# [2] = target: Human Cav1.2/β3/α2δ-1 Calcium Channel Membranes (α2δ-1 subunit) (Homo sapiens (Human), UniProt P54289); assay: [3H]gabapentin scintillation proximity binding assay on calcium channel α2δ-1 subunit membranes
# Chain of Human Cav1.2/β3/α2δ-1 Calcium Channel Membranes (α2δ-1 subunit) (P54289 25-956): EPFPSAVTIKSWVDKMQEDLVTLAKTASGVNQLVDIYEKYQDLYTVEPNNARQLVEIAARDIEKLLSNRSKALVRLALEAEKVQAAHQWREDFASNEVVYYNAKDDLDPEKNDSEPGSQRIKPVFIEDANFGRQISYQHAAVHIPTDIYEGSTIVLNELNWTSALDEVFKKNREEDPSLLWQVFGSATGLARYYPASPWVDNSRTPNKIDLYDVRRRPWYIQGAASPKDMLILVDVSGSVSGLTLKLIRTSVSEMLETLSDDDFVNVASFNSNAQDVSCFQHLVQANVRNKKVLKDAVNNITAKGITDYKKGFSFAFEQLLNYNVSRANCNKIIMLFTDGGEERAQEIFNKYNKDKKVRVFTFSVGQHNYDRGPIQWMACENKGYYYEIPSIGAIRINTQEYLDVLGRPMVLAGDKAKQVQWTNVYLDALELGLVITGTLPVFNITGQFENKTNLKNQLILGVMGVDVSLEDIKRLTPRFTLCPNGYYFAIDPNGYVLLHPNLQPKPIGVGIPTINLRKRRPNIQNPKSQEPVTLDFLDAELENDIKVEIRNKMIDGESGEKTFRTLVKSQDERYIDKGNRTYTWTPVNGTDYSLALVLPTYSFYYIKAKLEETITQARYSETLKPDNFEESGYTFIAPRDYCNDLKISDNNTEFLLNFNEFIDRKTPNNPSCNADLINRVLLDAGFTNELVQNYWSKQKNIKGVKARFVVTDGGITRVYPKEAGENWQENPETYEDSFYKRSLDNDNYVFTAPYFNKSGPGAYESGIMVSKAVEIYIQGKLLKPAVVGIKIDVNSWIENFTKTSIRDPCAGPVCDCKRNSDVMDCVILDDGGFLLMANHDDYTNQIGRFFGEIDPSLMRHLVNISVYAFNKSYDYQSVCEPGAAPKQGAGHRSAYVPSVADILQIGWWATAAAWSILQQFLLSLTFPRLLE
# Chain of Human Cav1.2/β3/α2δ-1 Calcium Channel Membranes (α2δ-1 subunit) (P54289 957-1103): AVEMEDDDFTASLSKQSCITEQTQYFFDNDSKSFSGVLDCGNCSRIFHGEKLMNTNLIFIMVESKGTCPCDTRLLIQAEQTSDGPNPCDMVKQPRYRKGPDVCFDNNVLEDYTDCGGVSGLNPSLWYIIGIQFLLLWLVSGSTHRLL
# Chain of Human Cav1.2/β3/α2δ-1 Calcium Channel Membranes (α2δ-1 subunit) (Q13936 whole entry partner): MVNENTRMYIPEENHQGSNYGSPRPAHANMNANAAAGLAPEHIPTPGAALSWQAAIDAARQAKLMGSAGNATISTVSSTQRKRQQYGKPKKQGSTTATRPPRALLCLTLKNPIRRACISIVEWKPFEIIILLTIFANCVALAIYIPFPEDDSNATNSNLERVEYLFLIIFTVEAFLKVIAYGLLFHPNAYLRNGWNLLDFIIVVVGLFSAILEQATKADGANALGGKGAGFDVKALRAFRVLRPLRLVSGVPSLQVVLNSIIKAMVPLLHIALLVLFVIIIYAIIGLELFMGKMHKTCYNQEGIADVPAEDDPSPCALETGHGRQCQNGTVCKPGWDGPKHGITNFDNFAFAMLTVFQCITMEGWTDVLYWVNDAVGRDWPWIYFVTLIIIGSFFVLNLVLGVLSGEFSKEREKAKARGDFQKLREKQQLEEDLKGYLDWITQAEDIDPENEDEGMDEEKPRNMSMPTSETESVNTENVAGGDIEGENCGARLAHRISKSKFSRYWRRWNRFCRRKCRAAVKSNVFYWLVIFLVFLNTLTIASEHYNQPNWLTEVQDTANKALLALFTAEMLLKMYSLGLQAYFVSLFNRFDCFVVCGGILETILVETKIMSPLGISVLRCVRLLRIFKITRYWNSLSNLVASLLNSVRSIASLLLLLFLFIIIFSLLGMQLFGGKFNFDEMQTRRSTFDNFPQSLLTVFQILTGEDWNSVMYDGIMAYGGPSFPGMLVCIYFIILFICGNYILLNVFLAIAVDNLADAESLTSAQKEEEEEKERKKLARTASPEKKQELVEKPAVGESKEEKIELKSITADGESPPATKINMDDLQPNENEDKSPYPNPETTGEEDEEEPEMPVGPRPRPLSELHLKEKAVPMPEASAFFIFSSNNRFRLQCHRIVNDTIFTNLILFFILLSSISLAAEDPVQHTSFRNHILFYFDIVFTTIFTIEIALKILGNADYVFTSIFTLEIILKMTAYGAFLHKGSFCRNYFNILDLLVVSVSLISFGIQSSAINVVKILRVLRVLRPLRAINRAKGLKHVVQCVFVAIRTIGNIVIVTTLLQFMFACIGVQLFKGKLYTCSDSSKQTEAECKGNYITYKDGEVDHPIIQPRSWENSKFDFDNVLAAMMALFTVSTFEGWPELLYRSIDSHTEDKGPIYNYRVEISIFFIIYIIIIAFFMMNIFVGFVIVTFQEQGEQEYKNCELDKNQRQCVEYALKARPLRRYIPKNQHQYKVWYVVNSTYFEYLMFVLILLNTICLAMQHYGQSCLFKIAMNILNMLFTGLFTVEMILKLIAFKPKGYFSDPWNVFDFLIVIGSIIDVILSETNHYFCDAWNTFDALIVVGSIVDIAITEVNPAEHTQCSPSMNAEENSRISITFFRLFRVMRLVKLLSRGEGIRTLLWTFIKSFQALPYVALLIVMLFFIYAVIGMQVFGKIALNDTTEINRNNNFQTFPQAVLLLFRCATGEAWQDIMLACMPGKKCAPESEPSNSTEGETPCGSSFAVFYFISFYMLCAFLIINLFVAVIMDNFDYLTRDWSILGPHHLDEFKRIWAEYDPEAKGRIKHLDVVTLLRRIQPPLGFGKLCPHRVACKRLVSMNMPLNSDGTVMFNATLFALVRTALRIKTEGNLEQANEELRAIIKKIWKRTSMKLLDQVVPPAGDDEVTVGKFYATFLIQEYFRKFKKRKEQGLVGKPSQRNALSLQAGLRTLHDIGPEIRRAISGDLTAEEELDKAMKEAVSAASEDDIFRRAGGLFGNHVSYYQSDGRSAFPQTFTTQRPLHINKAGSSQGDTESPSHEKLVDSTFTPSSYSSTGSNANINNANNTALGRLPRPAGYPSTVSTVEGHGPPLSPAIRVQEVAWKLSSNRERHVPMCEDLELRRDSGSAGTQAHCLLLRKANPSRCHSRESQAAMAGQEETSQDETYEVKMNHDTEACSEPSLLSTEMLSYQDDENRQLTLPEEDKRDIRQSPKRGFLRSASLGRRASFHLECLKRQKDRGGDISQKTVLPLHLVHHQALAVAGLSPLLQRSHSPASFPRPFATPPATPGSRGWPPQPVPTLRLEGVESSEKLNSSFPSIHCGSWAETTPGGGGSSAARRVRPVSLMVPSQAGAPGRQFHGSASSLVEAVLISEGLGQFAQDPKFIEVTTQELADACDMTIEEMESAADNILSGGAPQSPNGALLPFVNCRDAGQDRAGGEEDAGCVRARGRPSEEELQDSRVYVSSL
# Chain of Human Cav1.2/β3/α2δ-1 Calcium Channel Membranes (α2δ-1 subunit) (P54284 whole entry partner): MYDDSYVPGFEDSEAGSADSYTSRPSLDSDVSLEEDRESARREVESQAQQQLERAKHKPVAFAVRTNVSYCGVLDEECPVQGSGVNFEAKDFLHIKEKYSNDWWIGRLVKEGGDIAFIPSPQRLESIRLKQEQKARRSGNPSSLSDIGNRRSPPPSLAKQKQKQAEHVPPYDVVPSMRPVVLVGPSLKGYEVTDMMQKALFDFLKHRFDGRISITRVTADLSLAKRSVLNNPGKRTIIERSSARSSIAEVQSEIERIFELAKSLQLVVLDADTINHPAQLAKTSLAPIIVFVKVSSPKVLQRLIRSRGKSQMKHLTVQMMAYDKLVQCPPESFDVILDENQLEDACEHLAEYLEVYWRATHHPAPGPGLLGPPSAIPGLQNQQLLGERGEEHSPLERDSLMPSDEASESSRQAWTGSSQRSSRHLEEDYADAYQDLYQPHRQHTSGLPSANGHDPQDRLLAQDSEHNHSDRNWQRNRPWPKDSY
# Protocol: This test was carried out in the following way.
# Calcium Channel α2δ-1 Subunit Binding Assay
# Human Cav1.2/β3/α2δ-1 Calcium Channel Membranes (Chantest) were thawed on ice, aliquotted and stored at −80° C. for subsequent use. Membranes were diluted to 200 μg/ml (3 μg/well final assay concentration (FAC)) in assay buffer (10 mM HEPES (Sigma), (pH7.4)). The [^3H]GBP (Perkin Elmer) stock solution was stored at −20° C. [^3H]GBP was diluted to 40 nM (10 nM FAC) in assay buffer. SPA beads (Perkin Elmer) were re-suspended at 100 mg/ml in 10 mM HEPES (pH 7.4). Beads were diluted to 40 mg/ml (0.6 mg/well FAC) in assay buffer. Nonspecific binding (NSB) was generated using an excess of pregabalin (Tocris). Pregabalin was solubilized in Milli-Q H2O at 10 mM. 10 mM pregabalin was diluted to 400 μM (100 μM FAC) in assay buffer.
# Compounds were diluted to […] then half log diluted. These were then diluted 1:100 in assay buffer to a 4× assay concentration (1 μM FAC top dilution).
# SPA beads 15 μl; membranes 15 μl; pregabalin or assay buffer/test compound 15 μl and [^3H]GBP 15 μl were added to a white 96 well isoplate, (Perkin Elmer). The assay plate was sealed and mixed for 10 s on a plate shaker then placed into a plate rack and slotted into the reader stacker.
# The NSB values obtained by adding 100 μM pregabalin were subtracted from values obtained for compounds to generate a specific binding value. Specific binding in counts per minute (cpm) were plotted against compound concentration (M) and fitted using a 4 parameter logistic equation.
# α2δ-1 sub-unit = α2δ-1 sub-unit (Homo sapiens (Human), UniProt P54289); conditions: read-out: Literature IC50 nM; binding to α2δ-1 sub-unit, literature value; cited from earlier work
# Chain of α2δ-1 sub-unit (P54289 whole entry, looked up): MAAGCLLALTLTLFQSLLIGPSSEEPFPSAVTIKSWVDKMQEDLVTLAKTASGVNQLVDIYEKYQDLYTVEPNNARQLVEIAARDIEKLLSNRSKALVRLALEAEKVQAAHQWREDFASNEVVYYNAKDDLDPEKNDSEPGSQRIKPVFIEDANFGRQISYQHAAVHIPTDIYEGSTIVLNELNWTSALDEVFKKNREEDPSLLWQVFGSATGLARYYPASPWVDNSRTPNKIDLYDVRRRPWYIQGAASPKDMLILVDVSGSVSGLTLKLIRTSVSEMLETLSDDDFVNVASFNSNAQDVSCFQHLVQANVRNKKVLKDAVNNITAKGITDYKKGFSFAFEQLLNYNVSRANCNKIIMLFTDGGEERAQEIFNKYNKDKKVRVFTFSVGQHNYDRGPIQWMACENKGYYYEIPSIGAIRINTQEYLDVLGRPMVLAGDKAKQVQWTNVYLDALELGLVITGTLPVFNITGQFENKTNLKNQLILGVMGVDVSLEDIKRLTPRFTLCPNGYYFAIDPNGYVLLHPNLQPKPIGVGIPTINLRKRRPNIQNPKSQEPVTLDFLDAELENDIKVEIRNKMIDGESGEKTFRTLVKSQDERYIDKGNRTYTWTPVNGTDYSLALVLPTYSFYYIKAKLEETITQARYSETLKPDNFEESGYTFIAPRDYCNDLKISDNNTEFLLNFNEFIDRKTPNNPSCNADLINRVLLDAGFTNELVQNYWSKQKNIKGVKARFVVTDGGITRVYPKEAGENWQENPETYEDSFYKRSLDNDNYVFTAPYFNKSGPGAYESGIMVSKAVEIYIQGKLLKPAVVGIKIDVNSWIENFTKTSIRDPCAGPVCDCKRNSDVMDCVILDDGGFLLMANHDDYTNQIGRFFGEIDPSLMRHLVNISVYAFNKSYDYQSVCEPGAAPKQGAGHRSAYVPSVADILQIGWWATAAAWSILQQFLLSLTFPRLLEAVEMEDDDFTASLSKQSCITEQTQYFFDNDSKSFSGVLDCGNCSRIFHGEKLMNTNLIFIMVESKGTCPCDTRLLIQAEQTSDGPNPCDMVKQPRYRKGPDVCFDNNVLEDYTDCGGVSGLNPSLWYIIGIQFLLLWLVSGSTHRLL
SMILES,Specific binding to human CACNA2D1 recombinant protein [1],IC50 [2] [nM],IC50 (α2δ-1 sub-unit) [nM]
"CCC1=C[C@@H]2[C@H](C1)C[C@]2(CN)Cc1nnn[nH]1 [Test Compound, ((1R,5S,6S)-6-((1H-tetrazol-5-yl)methyl)-3-ethylbicyclo[3.2.0]hept-3-en-6-yl)methanamine]",able to specifically bind,–,–
"CCC1=CC2C(C1)C[C@@]2(CN)Cc1nn[nH]n1 (single isomer, unassigned) [Formula 2 peak 1 (Chiral)]",–,165,–
"CCC1=C[C@@H]2[C@H](C1)C[C@]2(CN)Cc1nn[nH]n1 (racemic) [Formula 2 (Racemic), Racemic ((1R,5S,6S)-6-((1H-tetrazol-5-yl)methyl)-3-ethylbicyclo[3.2.0]hept-3-en-6-yl)methanamine]",–,4.2,–
"CCC1=C[C@@H]2[C@H](C1)C[C@]2(CN)Cc1nc(=O)o[nH]1 (racemic) [Formula 3 (Racemic), Racemic 3-(((1R,5S,6S)-6-(aminomethyl)-3-ethylbicyclo[3.2.0]hept-3-en-6-yl)methyl)-1,2,4-oxadiazol-5(4H)-one]",–,19,–
"CCNC[C@]1(Cc2nnn[nH]2)C[C@H]2CC(CC)=C[C@H]21 (racemic) [Formula 1 (Racemic), Racemic N-(((1R,5S,6S)-6-((1H-tetrazol-5-yl)methyl)-3-ethylbicyclo[3.2.0]hept-3-en-6-yl)methyl)ethanamine]",–,≥ 500,–
"CC(C)CC(CN)CC(=O)O (stereo not drawn) [Pregabalin, reference compound]",–,23,80
"CCC1=C[C@@H]2[C@H](C1)C[C@]2(CN)CC(=O)O [Reference Compound, reference compound]",able to specifically bind,–,–
"CCC1=CC2C(C1)C[C@]2(CN)Cc1nn[nH]n1 (single isomer, unassigned) [Formula 2 peak 2 (chiral)]",–,2.1,–
